Assay results published in patent publication US20230241124A1, “ISOTONIC LIPID EMULSION” (priority 2020, published 2023).
Where a name gives a salt, the structure may show the parent alone.

System: cardiac ischemia
Assay: dosage study in the monkey model of cardiac ischemia
Assay type: in vivo
Protocol: This was done in groups of n=8 animals. […] The control groups consisted of sham operated animals undergoing no ischemia, and 2 groups undergoing cardiac ischemia: a saline control (n=8), and a “positive control” group (n=8) treated with Metoprolol tartrate (3 mg/kg), as usually applied to MI patients.

[1] = day 7, positive control 3 mg/kg

COCCc1ccc(OCC(O)CNC(C)C)cc1 (stereo not shown) [Metoprolol tartrate]
NT Pro BNP concentration [1]: 45.7 ± 15.4 pg/mL | ratio of infarcted heart area [1]: 5.80+/−1.83% | index of myocardial contractility (−dp/dt) (positive control 3 mg/kg): remained unchanged | reduction of infarcted area versus saline control (positive control 3 mg/kg): 55%
